Experiments:
[1] = tested on: cAMP-specific phosphodiesterase (PDE IV); experiment: Inhibition of the PDE IV enzyme derived from a dog trachea; format: biochemical; settings: test compound 10^−6 M; PDE IV from dog tracheal smooth muscle; substrate cAMP 1 μM
Protocol: cAMP-specific phosphodiesterase (PDE IV) was purified from a dog tracheal smooth muscle according to the method of Torphy et al. [Molecular Pharmacol., 37, 206-214 (1990)]. The PDE activity was measured by the following two steps according to the method of Kincaid and Manganiello et al. [Method in Enzymology (J. D. Corbin and R. A. Jonson, Eds.), 199, 457-470 (1988)]. Using [^3]cAMP (at a final concentration of 1 μM) as a substrate, the reaction was carried out in a standard mixture containing N,N-bis(2-hydroxyethyl)-2-aminoethanesulfonic acid (50 mM, pH=7.2), MgCl2 (1 mM), and soybean trypsin inhibitor (0.1 mg/ml). The reaction was initiated by adding the enzyme, followed by incubation at 30° C. for 10 to 30 minutes. After stopping the reaction with hydrochloric acid, the generated […] was completely converted to adenosine by 5′-nucleotidase.
The resultant was subjected to chromatography on DEAE-Sephadex A-25, and radio activity of the eluted [^3H] adenosine was counted using a scintillation counter. Each of the test drugs was dissolved in DMSO (final concentration 1.7%) and then added to the mixture.

COc1ccc(C(=O)Nc2c(Cl)cncc2Cl)c2c1OCC2C (racemic) [Compound 2, (±)-4-[(3,5-Dichloro-4-pyridyl)aminocarbonyl]-7-methoxy-3-methyl-2,3-dihydrobenzofuran]
Enzyme Inhibitory Activity (%, 10^−6 M) [1]: 77% | melting point: 198 to 200 °C

CCC1COc2c(OC)ccc(C(=O)Nc3c(Cl)cncc3Cl)c21 (racemic) [Compound 3, (±)-4-[(3,5-Dichloro-4-pyridyl)aminocarbonyl]-3-ethyl-7-methoxy-2,3-dihydrobenzofuran]
Enzyme Inhibitory Activity (%, 10^−6 M) [1]: 75% | melting point: 202 to 204 °C

COc1ccc(C(=O)Nc2c(Cl)cncc2Cl)c2c1OCC2C(C)C (racemic) [Compound 4, (±)-4-[(3,5-Dichloro-4-pyridyl)aminocarbonyl]-7-methoxy-3-(2-propyl)-2,3-dihydrobenzofuran]
Enzyme Inhibitory Activity (%, 10^−6 M) [1]: 53% | melting point: 239 to 241 °C

CCOC(=O)CC1COc2c(OC)ccc(C(=O)Nc3c(Cl)cncc3Cl)c21 (racemic) [Compound 5, (±)-4-[(3,5-Dichloro-4-pyridyl)aminocarbonyl]-3-ethoxycarbonylmethyl-7-methoxy-2,3-dihydrobenzofuran]
Enzyme Inhibitory Activity (%, 10^−6 M) [1]: 85% | melting point: 186 to 188 °C

CCOC(=O)CC1COc2c(OC)ccc(C(=O)Nc3ccccc3)c21 (racemic) [Compound 7, (±)-3-Ethoxycarbonylmethyl-7-methoxy-4-phenylaminocarbonyl-2,3-dihydrobenzofuran]
Enzyme Inhibitory Activity (%, 10^−6 M) [1]: 37% | melting point: 169 to 170 °C

CCOC(=O)CC1COc2c(OC)ccc(C(=O)NC3CCCCC3)c21 (racemic) [Compound 8, (±)-4-Cyclohexylaminocarbonyl-3-ethoxycarbonylmethyl-7-methoxy-2,3-dihydrobenzofuran]
Enzyme Inhibitory Activity (%, 10^−6 M) [1]: 5% | melting point: 197 to 199 °C

COc1ccc(C(=O)Nc2c(Cl)cncc2Cl)c2c1OCC2CC(=O)O (racemic) [Compound 9, (±)-3-Carboxymethyl-4-(3,5-dichloro-4-pyridylaminocarbonyl)-7-methoxy-2,3-dihydrobenzofuran]
Enzyme Inhibitory Activity (%, 10^−6 M) [1]: 22% | melting point: 259 to 263 °C

COc1ccc(C(=O)Nc2ccccc2)c2c1OCC2CC(=O)O (racemic) [Compound 11, (±)-3-Carboxymethyl-7-methoxy-4-phenylaminocarbonyl-2,3-dihydrobenzofuran]
Enzyme Inhibitory Activity (%, 10^−6 M) [1]: 6% | melting point: 248 to 251 °C

COc1ccc(C(=O)NC2CCCCC2)c2c1OCC2CC(=O)O (racemic) [Compound 12, (±)-3-Carboxymethyl-4-cyclohexylaminocarbonyl-7-methoxy-2,3-dihydrobenzofuran]
Enzyme Inhibitory Activity (%, 10^−6 M) [1]: 8% | melting point: 246 to 247 °C

COc1ccc(C(=O)Nc2c(Cl)cncc2Cl)c2c1OCC2CC(=O)OCc1ccccc1 (racemic) [Compound 13, (±)-3-Benzyloxycarbonylmethyl-4-[(3,5-Dichloro-4-pyridyl)aminocarbonyl]-7-methoxy-2,3-dihydrobenzofuran]
Enzyme Inhibitory Activity (%, 10^−6 M) [1]: 94% | melting point: 198 to 205 °C

COc1ccc(C(=O)Nc2ccccc2)c2c1OCC2CC(=O)OCc1ccccc1 (racemic) [Compound 15, (±)-3-Benzyloxycarbonylmethyl-7-methoxy-4-phenylaminocarbonyl-2,3-dihydrobenzofuran]
Enzyme Inhibitory Activity (%, 10^−6 M) [1]: 75% | melting point: 179 to 180 °C

COc1ccc(C(=O)Nc2c(Cl)cncc2Cl)c2c1OCC2CC(=O)NCc1cccnc1 (racemic) [Compound 18, (±)-4-[(3,5-Dichloro-4-pyridyl)aminocarbonyl]-7-methoxy-3-[(3-pyridylmethyl)aminocarbonyl]methyl-2,3-dihydrobenzofuran]
Enzyme Inhibitory Activity (%, 10^−6 M) [1]: 81% | melting point: 258 to 261 °C (dec.)

COc1ccc(C(=O)Nc2c(Cl)cncc2Cl)c2c1OCC2CC(=O)N1CCN(c2ccccc2)CC1 (racemic) [Compound 21, (±)-4-[(3,5-Dichloro-4-pyridyl)aminocarbonyl]-7-methoxy-3-[(4-phenyl-1-piperazinyl)carbonyl]methyl-2,3-dihydrobenzofuran]
Enzyme Inhibitory Activity (%, 10^−6 M) [1]: 84% | melting point: 224 °C

COc1ccc(C(=O)Nc2c(Cl)cncc2Cl)c2c1OCC2CC(=O)NCc1ccccc1 (racemic) [Compound 25, (±)-3-(Benzylaminocarbonyl)methyl-4-[(3,5-dichloro-4-pyridyl)aminocarbonyl]-7-methoxy-2,3-dihydrobenzofuran]
Enzyme Inhibitory Activity (%, 10^−6 M) [1]: 84% | melting point: 284 to 286 °C

COc1ccc(C(=O)Nc2c(Cl)cncc2Cl)c2c1OCC2CC(=O)Nc1ccccc1 (racemic) [Compound 27, (±)-4-[(3,5-Dichloro-4-pyridyl)aminocarbonyl]-7-methoxy-3-(phenylaminocarbonyl)methyl-2,3-dihydrobenzofuran]
Enzyme Inhibitory Activity (%, 10^−6 M) [1]: 75% | melting point: 296 to 300 °C (dec.)

COc1ccc(CNC(=O)CC2COc3c(OC)ccc(C(=O)Nc4c(Cl)cncc4Cl)c32)cc1 (racemic) [Compound 28, (±)-4-[(3,5-Dichloro-4-pyridyl)aminocarbonyl]-7-methoxy-3-[(4-methoxybenzyl)aminocarbonyl]methyl-2,3-dihydrobenzofuran]
Enzyme Inhibitory Activity (%, 10^−6 M) [1]: 83% | melting point: 269 to 271 °C

COc1ccc(C(=O)Nc2c(Cl)cncc2Cl)c2c1OCC2CC(=O)NCc1ccc(F)cc1 (racemic) [Compound 29, (±)-4-[(3,5-Dichloro-4-pyridyl)aminocarbonyl]-3-[(4-fluorobenzyl)aminocarbonyl]methyl-7-methoxy-2,3-dihydro-benzofuran]
Enzyme Inhibitory Activity (%, 10^−6 M) [1]: 85% | melting point: 287 °C

COc1ccc(C(=O)Nc2c(Cl)cncc2Cl)c2c1OCC2CC(=O)NCc1ccc(Cl)cc1 (racemic) [Compound 30, (±)-3-[(4-Chlorobenzyl)aminocarbonyl]methyl-4-[(3,5-dichloro-4-pyridyl)aminocarbonyl]-7-methoxy-2,3-dihydro-benzofuran]
Enzyme Inhibitory Activity (%, 10^−6 M) [1]: 85% | melting point: 283 to 286 °C

COc1ccc(C(=O)Nc2c(Cl)cncc2Cl)c2c1OCC2CC(=O)NCc1ccccc1Cl (racemic) [Compound 31, (±)-3-[(2-Chlorobenzyl)aminocarbonyl]methyl-4-[(3,5-dichloro-4-pyridyl)aminocarbonyl]-7-methoxy-2,3-dihydro-benzofuran]
Enzyme Inhibitory Activity (%, 10^−6 M) [1]: 89% | melting point: 288 to 289 °C

COc1ccc(C(=O)Nc2c(Cl)cncc2Cl)c2c1OCC2CC(=O)Nc1c(Cl)cncc1Cl (racemic) [Compound 32, (±)-4-[(3,5-Dichloro-4-pyridyl)aminocarbonyl]-3-[(3,5-dichloro-4-pyridyl)aminocarbonyl]methyl-7-methoxy-2,3-dihydrobenzofuran]
Enzyme Inhibitory Activity (%, 10^−6 M) [1]: 81% | melting point: > 300 °C

COc1ccc(CSc2ccncc2)c2c1OCC2C (racemic) [Compound 59, (±)-7-Methoxy-3-methyl-4-(4-pyridylthiomethyl)-2,3-dihydrobenzofuran]
Enzyme Inhibitory Activity (%, 10^−6 M) [1]: 24% | melting point: 110 to 112 °C

COc1ccc(C(Sc2ccncc2)c2ccccc2)c2c1OCC2C (racemic) [Compound 60A, (±)-7-Methoxy-3-methyl-4-[1-phenyl-1-(4-pyridylthio)-methyl]-2,3-dihydrobenzofuran]
Enzyme Inhibitory Activity (%, 10^−6 M) [1]: 15% | melting point: 59 to 62 °C

COc1ccc(C(Sc2ccncc2)c2ccccc2)c2c1OCC2C (racemic) [Compound 60B, (±)-7-Methoxy-3-methyl-4-[1-phenyl-1-(4-pyridylthio)-methyl]-2,3-dihydrobenzofuran]
Enzyme Inhibitory Activity (%, 10^−6 M) [1]: 4% | melting point: 84 to 85 °C

COc1ccc(C(C#N)Cc2c(Cl)cncc2Cl)c2c1OC(C)(C)C2 (racemic) [Compound 63, (±)-4-[1-Cyano-2-(3,5-dichloro-4-pyridyl)ethyl]-2,2-dimethyl-7-methoxy-2,3-dihydrobenzofuran]
Enzyme Inhibitory Activity (%, 10^−6 M) [1]: 85% | melting point: 158 to 162 °C

COc1ccc(C(=Cc2ccncc2)c2ccccc2)c2c1OCC2C (racemic) [Compound 80, (±)-7-Methoxy-3-methyl-4-[1-phenyl-2-(4-pyridyl)ethenyl]-2,3-dihydrobenzofuran]
Enzyme Inhibitory Activity (%, 10^−6 M) [1]: 17% | melting point: 103 to 105.5 °C

COc1ccc(CCc2ccncc2)c2c1OC1(CCCC1)O2.Cl [Compound 136, 4-Methoxy-7-[2-(4-pyridyl)ethyl]-spiro[1,3-benzodioxole-2,1′-cyclopentane].hydrochloride]
Enzyme Inhibitory Activity (%, 10^−6 M) [1]: 75%

COc1ccc(C(Cc2ccncc2)c2ccccc2)c2c1OC1(CCCC1)O2.Cl (centres unmarked) [Compound 137, 4-Methoxy-7-[1-phenyl-2-(4-pyridyl)ethyl]-spiro[1,3-benzodioxole-2,1′-cyclopentane].hydrochloride]
Enzyme Inhibitory Activity (%, 10^−6 M) [1]: 61%

COc1ccc(C(=Cc2ccncc2)c2ccccc2)c2c1OC1(CCCC1)O2 [Compound 139, 4-Methoxy-7-[1-phenyl-2-(4-pyridyl)ethenyl]-spiro[1,3-benzodioxole-2,1′-cyclopentane]]
Enzyme Inhibitory Activity (%, 10^−6 M) [1]: 54%

Reference: patent US6716987B1, “Derivatives of benzofuran or benzodioxazole compounds” (Kyowa Hakko Kogyo Co., Ltd., priority 1995, dated 2004)
